Columns and labels:
[1] = test system: RT112/84; experiment: In vitro growth inhibition of RT112/84 cells; assay type: cell-based; conditions: Homo sapiens, FGFR3-TACC3
Method: (§1) Adherent cells were digested with 0.25% trypsin-EDTA (Gibco). Suspension culture cells were collected by centrifugation (1700 rpm, 3 minutes). The supernatant was discarded and the cells were counted. According to each cell growth cycle, different concentrations of cells were prepared (5˜10×10^4 cells per ml), and inoculated to 96-well plates (Corning), with 100 μl per well, and incubated overnight at 37° C., 5% CO2. The next day, the test compound was added to the cultured cells (2 wells in parallel). The final concentration of the solvent was less than 1/1,000. The cells were further cultured for 3 to 5 days and assayed by MTT.
(§2) The MTT test reagent was a Dojindo CCK8 kit and the Microplate Reader was a THERMO […] FC instrument.
(§3) The adherent cells were taken out from the cell culture medium, and immediately added to a freshly prepared complete medium containing 10% CCK8 (5% FBS), 100 ul per hole. The suspended cells were directly added to a CCK8 reagent until reaching a final concentration of 10% and cultured for 1 to 4 hours. When a dark yellow color could be observed in the solvent control wells, the absorbance value at OD450 nm was measured and the cell growth rate was calculated according to the following formula: Cell Growth Rate (%)=100×(T−T0)/(C−T0)
(§4) T=optical density of drug-treated cell wells−optical density of blank control wells; T0=optical density of cell wells before drug treatment−optical density of blank control wells; C=optical density of solvent control wells−optical density of blank control wells. […] The experiments were repeated 1 to 3 times and a statistical analysis of data was conducted.
(§5) Mutations in the FGFR1-4 gene often occur in different types of cancer patients. In order to test the growth inhibition activity of the present compound against tumor cells expressing different FGFR variants, tumor cell lines expressing representative FGFR1-4 were selected for further determining the activity of compounds 25, 66, 38 and 95 of the present invention. BGJ398, a selective inhibitor of FGFR1-4, was used as the control compound. The specific test method is the same as test example 1.

[2] = test system: MOLM-13 (FLT3-ITD); experiment: In vitro growth inhibition of MOLM-13 tumor cells (MTT/CCK8); assay type: cell-based, Human; conditions: Homo sapiens, MOLM-13; in vitro growth inhibition (or induction of apoptosis), cells cultured 3 to 5 days, MTT (CCK8); read-out: IC50 MOLM-13 (FLT3-ITD)
[3] = test system: KYSE70; experiment: In vitro growth inhibition of PI3KCA amplified/mutant tumor cells KYSE70; assay type: cell-based; conditions: Homo sapiens, KYSE-70; KYSE70; PI3KCA amp; KIT G779C; read-out: IC50 growth inhibition
Method: as §1, with “Suspension” for “Adherent cells were digested with 0.25% trypsin-EDTA (Gibco). Suspension”
(§6) The adherent cells were taken out from the cell culture medium, and immediately added to a freshly prepared complete medium containing 10% CCK8 (5% FBS), 100 ul per hole. The suspended cells were directly added to a CCK8 reagent until reaching a final concentration of 10% and cultured for 1 to 4 hours.
as §4

[4] = test system: H1703 (PDGFRa amp); experiment: In vitro growth inhibition of H1703 tumor cells (MTT/CCK8); assay type: cell-based, Human; conditions: Homo sapiens, NCI-H1703; in vitro growth inhibition (or induction of apoptosis), cells cultured 3 to 5 days, MTT (CCK8); read-out: IC50 H1703 (PDGFRa amp)
[5] = test system: Karpas 299 (NPM-ALK); experiment: In vitro growth inhibition of Karpas 299 tumor cells (MTT/CCK8); assay type: cell-based, Human; conditions: Homo sapiens, KARPAS-299; in vitro growth inhibition (or induction of apoptosis), cells cultured 3 to 5 days, MTT (CCK8); read-out: IC50 Karpas 299 (NPM-ALK)
[6] = test system: HCC1954; experiment: In vitro growth inhibition of PI3KCA amplified/mutant tumor cells HCC1954; assay type: cell-based; conditions: Homo sapiens; HCC1954; PI3KCA H1047R; HER2 amp; read-out: IC50 growth inhibition
Method: as §1, with “Suspension” for “Adherent cells were digested with 0.25% trypsin-EDTA (Gibco). Suspension”
as §6, §4

[7] = test system: HCT116; experiment: In vitro growth inhibition of PI3KCA amplified/mutant tumor cells HCT116; assay type: cell-based; conditions: Homo sapiens; HCT-116; PI3KCAH1047R; KRAS G13D; read-out: IC50 growth inhibition
Method: as §1, with “Suspension” for “Adherent cells were digested with 0.25% trypsin-EDTA (Gibco). Suspension”
as §6, §4

[8] = test system: NCI-H460; experiment: In vitro growth inhibition of PI3KCA amplified/mutant tumor cells NCI-H460; assay type: cell-based; conditions: Homo sapiens; NCI-H460; PI3KCA E545K; KRAS Q61H; read-out: IC50 growth inhibition
Method: as §1, with “Suspension” for “Adherent cells were digested with 0.25% trypsin-EDTA (Gibco). Suspension”
as §6, §4

[9] = test system: Hep3B2 (FGFR3/4+++); experiment: In vitro growth inhibition of Hep3B2 tumor cells (MTT/CCK8); assay type: cell-based, Human; conditions: Homo sapiens, Hep3B; in vitro growth inhibition (or induction of apoptosis), cells cultured 3 to 5 days, MTT (CCK8); read-out: IC50 Hep3B2 (FGFR3/4+++)
[10] = test system: SK-OV-3; experiment: In vitro growth inhibition of PI3KCA amplified/mutant tumor cells SK-OV-3; assay type: cell-based; conditions: Homo sapiens; SK-OV-3; PI3KCA H1047R; HER2 amp; read-out: IC50 growth inhibition
Method: as §1, with “Suspension” for “Adherent cells were digested with 0.25% trypsin-EDTA (Gibco). Suspension”
as §6, §4

[11] = test system: MDA-MB-453; experiment: In vitro growth inhibition of MDA-MB-453 cells; assay type: cell-based; conditions: Homo sapiens, PI3KCA H1047R, FGFR4+++/Y367C
Method: as §1, §2, §3, §4, §5

[12] = test system: MFM-223; experiment: In vitro growth inhibition of MFM-223 cells; assay type: cell-based; conditions: Homo sapiens, PI3KCA H1047R, FGFR1 amp, FGFR2 amp
Method: as §1, §2, §3, §4, §5

COCCOc1cc2nccc(Oc3ccc(NC(=O)Nc4cc(C(C)(C)C)n[nH]4)c(Cl)c3)c2cc1NC(C)=O [Compound 66, N-[4-{4-[3-(5-tert-butyl-2H-pyrazol-3-yl)-ureido]-3-chloro-phenoxy}-7-(2-methoxy-ethoxy)-quinolin-6-yl]-acetamide]
IC50 [1]: 25.6 nM | IC50 [2]: 0.87 nM | IC50 [3]: 29.6 nM | IC50 [4]: 7.54 nM | IC50 [5]: 44.1 nM | IC50 [6]: 37.5 nM | IC50 [7]: 26.7 nM | IC50 [8]: 26.2 nM | IC50 [9]: 6.06 nM | IC50 [10]: 42.3 nM | IC50 [11]: 19.3 nM | IC50 [12]: 17.9 nM

COc1cc2nccc(Oc3ccc(NC(=O)Nc4cc(C(C)(C)C)nn4C)c(Cl)c3Cl)c2cc1C(N)=O [Compound 38, 4-{4-[3-(5-tert-butyl-2-methyl-2H-pyrazol-3-yl)-ureido]-2,3-dichloro-phenoxy}-7-methoxyquinolin-6-carboxamide]
IC50 [1]: 10.1 nM | IC50 [2]: 0.85 nM | IC50 [3]: 9.7 nM | IC50 [4]: 1.81 nM | IC50 [5]: 11.7 nM | IC50 [6]: 11.8 nM | IC50 [7]: 11.9 nM | IC50 [8]: 25.7 nM | IC50 [9]: 4.24 nM | IC50 [10]: 32.3 nM | IC50 [11]: 19.8 nM | IC50 [12]: 14.9 nM

CN1CCN(CCCOc2cc3nccc(Oc4ccc(NC(=O)Nc5cc(C(C)(C)C)n[nH]5)c(Cl)c4Cl)c3cc2C(N)=O)CC1 [Compound 95]
IC50 [1]: 9.76 nM | IC50 [2]: 1.75 nM | IC50 [3]: 18.9 nM | IC50 [4]: 3.81 nM | IC50 [5]: 7.5 nM | IC50 [6]: 9.94 nM | IC50 [7]: 33.2 nM | IC50 [8]: 34.5 nM | IC50 [9]: 8.52 nM | IC50 [10]: 26.4 nM | IC50 [11]: 49.2 nM | IC50 [12]: 32.6 nM
